Test results: PubChem BioAssay (NCI)
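Protocol summary: plate cells (96-well), add compound at 5 concentrations, incubate 48 h, interpolate endpoints linearly. GI50 = concentration required for 50% inhibition of growth. At the TGI there is no net growth.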

Experiments:
Assay in all cases: NCI anticancer screen, dose series, 48 h
OVCAR-5 ovarian = tested on: OVCAR-5 ovarian
NCI-H23 lung = tested on: NCI-H23 lung
NCI-H522 lung = tested on: NCI-H522 lung
MOLT-4 leukemia = tested on: MOLT-4 leukemia
SNB-19 CNS = tested on: SNB-19 CNS
M14 melanoma = tested on: M14 melanoma
MDA-MB-435 = tested on: MDA-MB-435
EKVX NSCLC = tested on: EKVX NSCLC
BT-549 breast = tested on: BT-549 breast
NCI-H460 lung = tested on: NCI-H460 lung
TK-10 renal = tested on: TK-10 renal
HCC-2998 colon = tested on: HCC-2998 colon
SF-268 CNS = tested on: SF-268 CNS
U251 CNS = tested on: U251 CNS
SK-MEL-28 melanoma = tested on: SK-MEL-28 melanoma
COLO 205 colon = tested on: COLO 205 colon
SK-MEL-2 melanoma = tested on: SK-MEL-2 melanoma
UO-31 renal = tested on: UO-31 renal
NCI/ADR-RES ovarian = tested on: NCI/ADR-RES ovarian
K-562 leukemia = tested on: K-562 leukemia
786-0 renal = tested on: 786-0 renal
A549 NSCLC = tested on: A549 NSCLC
MCF7 breast = tested on: MCF7 breast
HOP-62 NSCLC = tested on: HOP-62 NSCLC
UACC-62 melanoma = tested on: UACC-62 melanoma
T-47D breast = tested on: T-47D breast
UACC-257 melanoma = tested on: UACC-257 melanoma
SW-620 colon = tested on: SW-620 colon
KM12 colon = tested on: KM12 colon
SK-MEL-5 melanoma = tested on: SK-MEL-5 melanoma
HOP-92 NSCLC = tested on: HOP-92 NSCLC
DU-145 prostate = tested on: DU-145 prostate
HL-60(TB) leukemia = tested on: HL-60(TB) leukemia
HT29 colon = tested on: HT29 colon
ACHN renal = tested on: ACHN renal
OVCAR-4 ovarian = tested on: OVCAR-4 ovarian
SNB-75 CNS = tested on: SNB-75 CNS
PC-3 prostate = tested on: PC-3 prostate
SF-295 CNS = tested on: SF-295 CNS
HCT-116 colon = tested on: HCT-116 colon
IGROV1 ovarian = tested on: IGROV1 ovarian
MALME-3M melanoma = tested on: MALME-3M melanoma
NCI-H226 lung = tested on: NCI-H226 lung
CAKI-1 renal = tested on: CAKI-1 renal
CCRF-CEM leukemia = tested on: CCRF-CEM leukemia
SR leukemia = tested on: SR leukemia
LOX IMVI melanoma = tested on: LOX IMVI melanoma
HCT-15 colon = tested on: HCT-15 colon
A498 renal = tested on: A498 renal
SF-539 CNS = tested on: SF-539 CNS
SK-OV-3 ovarian = tested on: SK-OV-3 ovarian
SN12C renal = tested on: SN12C renal
RPMI-8226 leukemia = tested on: RPMI-8226 leukemia
OVCAR-8 ovarian = tested on: OVCAR-8 ovarian
HS 578T breast = tested on: HS 578T breast
MDA-MB-231 breast = tested on: MDA-MB-231 breast

SMILES: COC(=O)[C@H](Cc1ccccc1)NC(=O)c1csc([C@@H](C[C@H](C(C)C)N(C)C(=O)[C@@H](NC(=O)[C@H]2CCCN2C)C2CC2)OC(C)=O)n1
- GI50 (OVCAR-5 ovarian): 1.66 µM
- TGI (OVCAR-5 ovarian): > 33.3 µM
- GI50 (NCI-H23 lung): 1.46 µM
- TGI (NCI-H23 lung): > 33.3 µM
- GI50 (NCI-H522 lung): 0.0783 µM
- TGI (NCI-H522 lung): > 33.3 µM
- GI50 (MOLT-4 leukemia): 0.215 µM
- TGI (MOLT-4 leukemia): > 33.3 µM
- GI50 (SNB-19 CNS): 0.943 µM
- TGI (SNB-19 CNS): > 33.3 µM
- GI50 (M14 melanoma): 0.281 µM
- TGI (M14 melanoma): > 33.3 µM
- GI50 (MDA-MB-435): 0.027 µM
- TGI (MDA-MB-435): 0.191 µM
- GI50 (EKVX NSCLC): 1.97 µM
- TGI (EKVX NSCLC): > 33.3 µM
- GI50 (BT-549 breast): 0.248 µM
- TGI (BT-549 breast): 7.85 µM
- GI50 (NCI-H460 lung): 0.397 µM
- TGI (NCI-H460 lung): > 33.3 µM
- GI50 (TK-10 renal): 4.18 µM
- TGI (TK-10 renal): > 33.3 µM
- GI50 (HCC-2998 colon): 1.48 µM
- TGI (HCC-2998 colon): > 33.3 µM
- GI50 (SF-268 CNS): 1.05 µM
- TGI (SF-268 CNS): > 33.3 µM
- GI50 (U251 CNS): 0.521 µM
- TGI (U251 CNS): > 33.3 µM
- GI50 (SK-MEL-28 melanoma): 2.48 µM
- TGI (SK-MEL-28 melanoma): > 33.3 µM
- GI50 (COLO 205 colon): 0.456 µM
- TGI (COLO 205 colon): 4.29 µM
- GI50 (SK-MEL-2 melanoma): 0.728 µM
- TGI (SK-MEL-2 melanoma): > 33.3 µM
- GI50 (UO-31 renal): 2.17 µM
- TGI (UO-31 renal): > 27.9 µM
- GI50 (NCI/ADR-RES ovarian): 8.59 µM
- TGI (NCI/ADR-RES ovarian): > 33.3 µM
- GI50 (K-562 leukemia): 0.113 µM
- TGI (K-562 leukemia): > 33.3 µM
- GI50 (786-0 renal): 0.746 µM
- TGI (786-0 renal): > 33.3 µM
- GI50 (A549 NSCLC): 0.977 µM
- TGI (A549 NSCLC): > 33.3 µM
- GI50 (MCF7 breast): 0.124 µM
- TGI (MCF7 breast): > 33.3 µM
- GI50 (HOP-62 NSCLC): 0.831 µM
- TGI (HOP-62 NSCLC): > 33.3 µM
- GI50 (UACC-62 melanoma): 1.38 µM
- TGI (UACC-62 melanoma): > 33.3 µM
- GI50 (T-47D breast): > 7.36 µM
- TGI (T-47D breast): > 33.3 µM
- GI50 (UACC-257 melanoma): 16.9 µM
- TGI (UACC-257 melanoma): > 33.3 µM
- GI50 (SW-620 colon): 0.235 µM
- TGI (SW-620 colon): > 33.3 µM
- GI50 (KM12 colon): 0.45 µM
- TGI (KM12 colon): > 33.3 µM
- GI50 (SK-MEL-5 melanoma): 0.671 µM
- TGI (SK-MEL-5 melanoma): 8.99 µM
- GI50 (HOP-92 NSCLC): 0.463 µM
- TGI (HOP-92 NSCLC): > 9.56 µM
- GI50 (DU-145 prostate): 0.346 µM
- TGI (DU-145 prostate): > 33.3 µM
- GI50 (HL-60(TB) leukemia): 0.204 µM
- TGI (HL-60(TB) leukemia): 1.9 µM
- GI50 (HT29 colon): 0.14 µM
- TGI (HT29 colon): > 33.3 µM
- GI50 (ACHN renal): 1.44 µM
- TGI (ACHN renal): > 33.3 µM
- GI50 (OVCAR-4 ovarian): 3.98 µM
- TGI (OVCAR-4 ovarian): > 33.3 µM
- GI50 (SNB-75 CNS): 0.131 µM
- TGI (SNB-75 CNS): > 33.3 µM
- GI50 (PC-3 prostate): 0.572 µM
- TGI (PC-3 prostate): > 33.3 µM
- GI50 (SF-295 CNS): 0.254 µM
- TGI (SF-295 CNS): > 33.3 µM
- GI50 (HCT-116 colon): 0.138 µM
- TGI (HCT-116 colon): 21.4 µM
- GI50 (IGROV1 ovarian): 0.327 µM
- TGI (IGROV1 ovarian): > 33.3 µM
- GI50 (MALME-3M melanoma): 5.49 µM
- TGI (MALME-3M melanoma): > 33.3 µM
- GI50 (NCI-H226 lung): 3.93 µM
- TGI (NCI-H226 lung): > 33.3 µM
- GI50 (CAKI-1 renal): 0.793 µM
- TGI (CAKI-1 renal): > 33.3 µM
- GI50 (CCRF-CEM leukemia): 0.166 µM
- TGI (CCRF-CEM leukemia): > 33.3 µM
- GI50 (SR leukemia): 0.0103 µM
- TGI (SR leukemia): > 33.3 µM
- GI50 (LOX IMVI melanoma): 0.301 µM
- TGI (LOX IMVI melanoma): > 33.3 µM
- GI50 (HCT-15 colon): 0.855 µM
- TGI (HCT-15 colon): > 33.3 µM
- GI50 (A498 renal): 1.53 µM
- TGI (A498 renal): 15.2 µM
- GI50 (SF-539 CNS): 0.29 µM
- TGI (SF-539 CNS): 1.55 µM
- GI50 (SK-OV-3 ovarian): 1.04 µM
- TGI (SK-OV-3 ovarian): > 33.3 µM
- GI50 (SN12C renal): 0.548 µM
- TGI (SN12C renal): > 33.3 µM
- GI50 (RPMI-8226 leukemia): 0.224 µM
- TGI (RPMI-8226 leukemia): > 33.3 µM
- GI50 (OVCAR-8 ovarian): 0.602 µM
- TGI (OVCAR-8 ovarian): > 33.3 µM
- GI50 (HS 578T breast): 0.122 µM
- TGI (HS 578T breast): > 33.3 µM
- GI50 (MDA-MB-231 breast): 0.577 µM
- TGI (MDA-MB-231 breast): > 12.9 µM
